Here are results for 34 compounds from patent US20240246908A1 (ORION CORPORATION, priority 2021, published 2024).

The structures appear in SMILES notation.

The subject of the assay is YAP-TEAD. Description: TEAD inhibition, Hippo Pathway TEAD Reporter MCF-7 luciferase assay. In kind it is cell-based. The note with it: Homo sapiens, MCF7, 24 h, Hippo Pathway TEAD Reporter MCF-7 cells, luciferase activity after 24 h; read-out: IC50 of the test compounds on YAP-TEAD inhibition (Group). Here is the method: TEAD inhibition was assayed using Hippo Pathway TEAD Reporter—MCF-7 cell line (BPS Bioscience, Catalog #: 60618) which contains firefly luciferase gene under the control of TEAD responsive elements. In the cell line, YAP1 remains in the nucleus inducing constitutive expression of luciferase reporter. Amount of expressed luciferase was detected using ONE-Glo Luciferase Assay System (Promega) and measuring plates with Enspire Multimode Plate Reader (PerkinElmer).
Hippo Pathway TEAD Reporter—MCF-7 cells were plated on white/clear Poly-D-Lysine coated 384 plates (Corning #356660) at the density of 8500 cells/well. Next day test compounds (11 concentrations with 4 replicates) and DMSO control (0.1%) were added to the plate. After 24 h cells were lysed and luciferase activity was measured. The half maximal inhibitory concentration (IC50) of the test compounds on YAP-TEAD inhibition was determined.
Broadly, the IC50 is the concentration that gives 50% inhibition. In the case of `COc1ccc(Oc2ccc(C(F)(F)F)cc2)cc1NC(=O)[C@@H]1CCC(=O)N1C` [Compound 70, (S)—N-(2-Methoxy-5-(4-(trifluoromethyl)phenoxy)phenyl)-1-methyl-5-oxo-pyrrolidine-2-carboxamide], the IC50 is less than 50 nM. For the compound `COc1ccc(Oc2ccc(C(F)(F)F)cc2)cc1NC(=O)C1CS(=O)(=O)N1C` (stereo not shown) [Compound 71, N-(2-Methoxy-5-(4-(trifluoromethyl)phenoxy)phenyl)-2-methyl-1,2-thiazeti-dine-3-carboxamide 1,1-dioxide], the IC50 lay in the range of 50 to 300 nM. As to `COc1ccc(Oc2cccc(C(F)(F)F)c2)cc1NC(=O)C1CS(=O)(=O)N1C` (stereo not shown) [Compound 72, N-(2-Methoxy-5-(3-(trifluoromethyl)phenoxy)phenyl)-2-methyl-1,2-thiaze-tidine-3-carboxamide 1,1-dioxide], the IC50 fell in the range of 301 to 2000 nM.

As to `COc1cc(F)c(COc2cccc(F)c2)cc1NC(=O)C1CCC(=O)N1` (stereo not shown) [Compound 73, N-(4-Fluoro-5-((3-fluorophenoxy)methyl)-2-methoxyphenyl)-5-oxopyrrolidine-2-carboxamide], the IC50 was 50 to 300 nM. As for `COc1ccc(Nc2ccc(C(F)(F)F)cc2)cc1NC(=O)C1CCC(=O)N1C` (stereo not shown) [Compound 74, N-(2-Methoxy-5-((4-(trifluoromethyl)phenyl)amino)phenyl)-1-methyl-5-oxo-pyrrolidine-2-carboxamide], the IC50 lay within 50 to 300 nM. For the compound `CN1C(=O)CCC1C(=O)Nc1cc(Oc2ccc(C(F)(F)F)cc2)ccc1F` (stereo not shown) [Compound 75, N-(2-Fluoro-5-(4-(trifluoromethyl)phenoxy)phenyl)-1-methyl-5-oxopyrrolidine-2-carboxamide], the IC50 is less than 50 nM. As to `O=C1CCC(C(=O)Nc2cc(Oc3ccc(C(F)(F)F)cc3)ccc2F)N1` (stereo not shown) [Compound 76, N-(2-Fluoro-5-(4-(trifluoromethyl)phenoxy)phenyl)-5-oxopyrrolidine-2-carboxamide], the half-maximal inhibitory concentration (IC50) was less than 50 nM.

Regarding `COc1ccc(Oc2cc(F)cc(F)c2)cc1NC(=O)C1CCC(=O)N1C(C)=O` (stereo not shown) [Compound 77, 1-Acetyl-N-(5-(3,5-difluorophenoxy)-2-methoxyphenyl)-5-oxopyrrolidine-2-carboxamide], the IC50 was in the range of 50 to 300 nM.

Turning to `COc1ccc(Oc2cc(F)cc(F)c2)cc1NC(=O)C1CCC(=O)N1C` (stereo not shown) [Compound 78, N-(5-(3,5-Difluorophenoxy)-2-methoxyphenyl)-1-methyl-5-oxopyrrolidine-2-carboxamide], the IC50 lay in the range of 50 to 300 nM. As for `COc1ccc(Oc2cc(F)ccc2F)cc1NC(=O)C1CCC(=O)N1` (stereo not shown) [Compound 79, N-(5-(2,5-Difluorophenoxy)-2-methoxyphenyl)-5-oxopyrrolidine-2-carboxamide], the figure is 301 to 2000 nM; as for `O=C1CCC2(C(=O)Nc3cc(Oc4ccc(C(F)(F)F)cc4)cc4c3OCCO4)CCCN12` (stereo not shown) [Compound 80, 3-Oxo-N-(7-(4-(trifluoromethyl)phenoxy)-2,3-dihydrobenzo[b][1,4]dioxin-5-yl)tetrahydro-1H-pyrrolizine-7a(5H)-carboxamide], 50 to 300 nM.

Turning to `COc1ccc(Oc2ccc(C(F)(F)F)cc2)cc1NC(=O)C1CCC(=O)N1C(C)C` (stereo not shown) [Compound 81, 1-Isopropyl-N-(2-methoxy-5-(4-(trifluoromethyl)phenoxy)phenyl)-5-oxo-pyrrolidine-2-carboxamide], the IC50 is less than 50 nM. For the compound `COc1ccc(Oc2ccc(F)c(F)c2)cc1NC(=O)C1CCC(=O)N1C(C)C` (stereo not shown) [Compound 82, N-(5-(3,4-Difluorophenoxy)-2-methoxyphenyl)-1-isopropyl-5-oxopyrrolidine-2-carboxamide], the IC50 was in the range of 50 to 300 nM. In the case of `CN1C(=O)CCC1C(=O)Nc1cc(Oc2ccc(C(F)(F)F)cc2)ccc1-c1nnco1` (stereo not shown) [Compound 83, N-(2-(1,3,4-Oxadiazol-2-yl)-5-(4-(trifluoromethyl)phenoxy)phenyl)-1-methyl-5-oxopyrrolidine-2-carboxamide], the IC50 was in the range of 50 to 300 nM. As for `CN1C(=O)CCC1C(=O)Nc1cc(Oc2cccc(C(F)(F)F)c2)ccc1-c1nnco1` (stereo not shown) [Compound 84, N-(2-(1,3,4-Oxadiazol-2-yl)-5-(3-(trifluoromethyl)phenoxy)phenyl)-1-methyl-5-oxopyrrolidine-2-carboxamide], the figure is 301 to 2000 nM. Take `CN1C(=O)CCC1C(=O)Nc1cc(Oc2ccc(F)c(F)c2)ccc1-c1ccn(C)n1` (stereo not shown) [Compound 85, N-(5-(3,4-Difluorophenoxy)-2-(1-methyl-1H-pyrazol-3-yl)phenyl)-1-methyl-5-oxopyrrolidine-2-carboxamide]: the IC50 was in the range of 301 to 2000 nM. As to `CN1C(=O)CCC1C(=O)Nc1cc(Oc2ccc(F)c(F)c2)ccc1-c1ccnn1C` (stereo not shown) [Compound 86, N-(5-(3,4-Difluorophenoxy)-2-(1-methyl-1H-pyrazol-5-yl)phenyl)-1-methyl-5-oxopyrrolidine-2-carboxamide], the IC50 lay within 50 to 300 nM. Take `COc1ccc(Oc2ccc(C(F)(F)F)cc2)cc1NC(=O)C1COC(=O)N1C` (stereo not shown) [Compound 87, N-(2-Methoxy-5-(4-(trifluoromethyl)phenoxy)phenyl)-3-methyl-2-oxo-oxazolidine-4-carboxamide]: the IC50 is less than 50 nM. `COc1ccc(Oc2ccc(F)c(F)c2)cc1NC(=O)C1COC(=O)N1C` (stereo not shown) [Compound 88, N-(5-(3,4-Difluorophenoxy)-2-methoxyphenyl)-3-methyl-2-oxooxazolidine-4-carboxamide]: the IC50 was less than 50 nM. With `COc1ccc(COc2ccc(F)c(F)c2)cc1NC(=O)C1COC(=O)N1C` (stereo not shown) [Compound 89, N-(5-((3,4-Difluorophenoxy)methyl)-2-methoxyphenyl)-3-methyl-2-oxo-oxazolidine-4-carboxamide] the figure was 50 to 300 nM; with `COc1ccc(COc2cccc(F)c2)cc1NC(=O)C1COC(=O)N1C` (stereo not shown) [Compound 90, N-(5-((3-Fluorophenoxy)methyl)-2-methoxyphenyl)-3-methyl-2-oxo-oxazolidine-4-carboxamide], 50 to 300 nM. As for `COc1ccc(Oc2ccc(C(F)(F)F)cc2)cc1NC(=O)C1CCC(=S)N1C` (stereo not shown) [Compound 91, N-(2-Methoxy-5-(4-(trifluoromethyl)phenoxy)phenyl)-1-methyl-5-thioxo-pyrrolidine-2-carboxamide], the IC50 was less than 50 nM.

Take `COc1ccc(Oc2ccc(C(F)(F)F)cc2)cc1NC(=O)C1CCC(=S)N1` (stereo not shown) [Compound 92, N-(2-Methoxy-5-(4-(trifluoromethyl)phenoxy)phenyl)-5-thioxopyrrolidine-2-carboxamide]: the IC50 was less than 50 nM. Take `COc1ccc(Oc2ccc(F)c(F)c2)cc1NC(=O)[C@H]1CCC(=O)N1C` [Compound 93, (R)—N-(5-(3,4-Difluorophenoxy)-2-methoxyphenyl)-1-methyl-5-oxopyrrolidine-2-carboxamide]: the IC50 was less than 50 nM. In the case of `COc1ccc(Oc2ccc(F)c(F)c2)cc1NC(=O)[C@@H]1CCC(=O)N1C` [Compound 94, (S)—N-(5-(3,4-Difluorophenoxy)-2-methoxyphenyl)-1-methyl-5-oxopyrrolidine-2-carboxamide], the half-inhibitory concentration (IC50) fell in the range of 50 to 300 nM. With `COc1ccc(COc2ccc(F)c(F)c2)cc1NC(=O)C1CCC(=O)N1C` (stereo not shown) [Compound 95, N-(5-((3,4-Difluorophenoxy)methyl)-2-methoxyphenyl)-1-methyl-5-oxo-pyrrolidine-2-carboxamide], the IC50 lay within 50 to 300 nM.

For the compound `COc1ccc(OC2CC3CCC2C3)cc1NC(=O)C1CCC(=O)N1C` (stereo not shown) [Compound 96, N-(5-(Bicyclo[2.2.1]heptan-2-yloxy)-2-methoxyphenyl)-1-methyl-5-oxo-pyrrolidine-2-carboxamide], the IC50 was 50 to 300 nM. Take `CN1C(=O)CC[C@@H]1C(=O)Nc1cc(Oc2ccc(F)c(F)c2)cc2c1OCCO2` [Compound 97, (R)—N-(7-(3,4-Difluorophenoxy)-2,3-dihydrobenzo[b][1,4]dioxin-5-yl)-1-methyl-5-oxopyrrolidine-2-carboxamide]: the IC50 was less than 50 nM. With `CN1C(=O)CC[C@H]1C(=O)Nc1cc(Oc2ccc(F)c(F)c2)cc2c1OCCO2` [Compound 98, (S)—N-(7-(3,4-Difluorophenoxy)-2,3-dihydrobenzo[b][1,4]dioxin-5-yl)-1-methyl-5-oxopyrrolidine-2-carboxamide] the figure was 50 to 300 nM; with `CN1C(=O)CC[C@@H]1C(=O)Nc1cc(Oc2ccc(C(F)(F)F)cc2)cc2c1OCC2` [Compound 99, (R)-1-Methyl-5-oxo-N-(5-(4-(trifluoromethyl)phenoxy)-2,3-dihydrobenzofuran-7-yl)pyrrolidine-2-carboxamide], less than 50 nM. As for `CN1C(=O)CC[C@H]1C(=O)Nc1cc(Oc2ccc(F)c(F)c2)cc2c1OCC2` [Compound 100, (S)—N-(5-(3,4-Difluorophenoxy)-2,3-dihydrobenzofuran-7-yl)-1-methyl-5-oxopyrrolidine-2-carboxamide], the IC50 was less than 50 nM. On to `COc1ccc(Oc2ccc(C(F)(F)F)cc2)cc1NC(=O)[C@H]1COC(=O)N1C` [Compound 101, (R)—N-(2-Methoxy-5-(4-(trifluoromethyl)phenoxy)phenyl)-3-methyl-2-oxooxazolidine-4-carboxamide], for which the IC50 was less than 50 nM.

`COc1ccc(Oc2ccc(C(F)(F)F)cc2)cc1NC(=O)[C@@H]1COC(=O)N1C` [Compound 102, (S)—N-(2-Methoxy-5-(4-(trifluoromethyl)phenoxy)phenyl)-3-methyl-2-oxooxazolidine-4-carboxamide]: the IC50 is less than 50 nM.

Consider `COc1ccc(O[C@H]2CC[C@H](C(F)(F)F)CC2)cc1NC(=O)[C@H]1CCC(=O)N1C` [Compound 103, (R)—N-(2-Methoxy-5-(((trans)-4-(trifluoromethyl)cyclohexyl)oxy)phenyl)-1-methyl-5-oxopyrrolidine-2-carboxamide], for which the IC50 was less than 50 nM.
